For series [1], the target named is T1, IDE (Homo sapiens, UniProt P14735). Particulars: cited from earlier work; for IC50: known IDE inhibitors, no reference given.
Series [2] concerns the target T1, IDE. The series is described as follows: In vitro IDE enzymatic assay (hydrolysis of FRET1, SP1, FAβB, 125I-insulin or insulin by HTRF). The series is classed as biochemical. The arrangement: made in house; host or cells: bacteria. Conditions: for IC50: commercially available hydroxamic acids. (TR-FRET usually uses a lanthanide donor and a delayed reading to cut background.)
Description: Degradation of unmodified recombinant human insulin (Sigma-Aldrich) and FITC-ins [28] (Invitrogen) was assessed using a homogeneous time-resolved fluorescence (HTRF)-based assay (CIS-Bio).

Another series has as its system MMP-8. Conditions: best known target MMP-8; no reference given; cited from earlier work.
The target in the next series is T2, cathepsin D (Bos taurus, UniProt P80209).
T2 construct: purchased Sigma-Aldrich
T2 sequence (P80209 45-390): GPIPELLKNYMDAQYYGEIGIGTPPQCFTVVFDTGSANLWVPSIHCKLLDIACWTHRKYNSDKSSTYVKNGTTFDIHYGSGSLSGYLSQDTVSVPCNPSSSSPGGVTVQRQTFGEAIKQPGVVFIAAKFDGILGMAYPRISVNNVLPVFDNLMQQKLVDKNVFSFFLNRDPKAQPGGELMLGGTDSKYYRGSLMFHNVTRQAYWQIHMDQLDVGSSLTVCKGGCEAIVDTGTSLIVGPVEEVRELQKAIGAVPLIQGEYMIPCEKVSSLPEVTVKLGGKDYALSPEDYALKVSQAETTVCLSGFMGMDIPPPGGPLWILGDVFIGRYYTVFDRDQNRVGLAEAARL
The series is described as follows: Cathepsin D activity (Cathepsin D Assay Kit). The series is classed as biochemical.

Series [3] relates to CHO-IR cells. Put plainly: Cell-based extracellular insulin degradation assay, CHO-IR cells. The source says:
(§1) Recombinant human insulin (Sigma) was applied to CHO-IR cells or HeLa cells grown to near-confluency on 96-well plates under normal cell culture conditions, and its disappearance over time in the presence of different concentrations of IDE inhibitors or vehicle was quantified using a HTRF-based insulin assay (CIS-Bio). CHO-IR cells were a generous gift from Dr. Michel Bernier (National Instutute on Aging) and HeLa cells were purchased from American Type Culture Collection.

The next series concerns HeLa cells. Put plainly: Cell-based extracellular insulin degradation assay, HeLa cells.
Text: as §1

The test system of series [4] is CHO-IR cells. Put plainly: Live-cell imaging of intracellular insulin catabolism (FITC-ins). The series is classed as cell-based. Conditions: FITC-ins-loaded CHO-IR cells, Ii1 10 µM, 22°C. As to the method:
CHO-IR cells were cultured on poly-D-lysine glass bottom culture dishes (MatTek Corp.), loaded with FITC-ins (2 µM; Invitrogen) for 2 h at 37°C, washed with Hank's balanced salt solution (HBSS), then imaged consecutively at fixed intervals by fluorescence microscopy at 22°C. Intracellular and extracellular fluorescence in the resulting images was quantified using MetaMorph software according to manufacturer's recommendations (Molecular Devices).

For series [5], the system named is IR autophosphorylation (Tyr 1146) in CHO-IR cells. Put plainly: IR autophosphorylation assay (ELISA). Particulars: CHO-IR cells cold-loaded with insulin, 10 µM inhibitor, 5 min at 37°C. The series is classed as cell-based, human. As for the experimental part:
CHO-IR cells were grown to near confluency in 6-well plates, washed, then starved for 6 h in insulin-free medium (DMEM/0.1% BSA). Cells were then cold-loaded with human insulin essentially as described. Briefly, after cooling the cells to 4°C, the medium was replaced with ice-cold HBSS/1% BSA supplemented with insulin (10 nM), incubated at 4°C for 1 h, washed 3 times with ice-cold HBSS/1% BSA. After addition of ice-cold HBSS/1% BSA supplemented with IDE inhibitors (10 µM) or DMSO, the cells were incubated at 37°C for 5 min, then rapidly cooled on ice. Cell lysates were harvested using manufacturer-provided cell-lysis buffer (Cell Signaling Technology) supplemented with additional phosphatase inhibitors (Millipore). IR autophosphorylation (Tyr 1146) and total IR levels were quantified by ELISAs (Cell Signaling Technology), and confirmed by western blotting with the same antibodies used for ELISAs or GAPDH as a loading control.

In series [6] the test system is CHO-IR cells. The series is described as follows: Quantification of prebound 125I-insulin catabolism. The series is classed as cell-based. Particulars: 10 µM inhibitor, 5 min at 37°C. As for the experimental part: Confluent monolayers of CHO-IR cells grown in 6-well culture dishes were cold loaded with 240 pM ^125I-insulin for 1 h and washed 3 times with ice-cold HBSS/1% BSA. […] Following harvesting of cells by scraping, ^125I levels were quantified by gamma counter (Beckman).

The subject of series [7] is CHO-IR cells.
The next series relates to MMP-13. Particulars: best known target MMP-13; no reference given; cited from earlier work.
The next series relates to MMP-2. Conditions: best known target MMP-2; no reference given; cited from earlier work.
A further series concerns MMP-3. Particulars: best known target MMP-3; no reference given; cited from earlier work.
Series [8] concerns the target T1, IDE. Put plainly: High-throughput screening, Aβ degradation assay. Particulars: high-throughput screening hit. It counts as biochemical. The source says: The few IDE inhibitors currently in use are generally non-selective and/or highly toxic, and all suffer from extremely low potency, requiring mM concentrations to achieve complete inhibition (Table S1). To develop improved inhibitors of IDE, we initially conducted high-throughput screening on ∼115,000 compounds, using a previously developed Aβ degradation assay. Although several inhibitors were discovered, most of these were either toxic, thiol-alkylating compounds [18] […] Among the remaining inhibitors, just a single compound, known as nullscript

Series [9] concerns the target T1, IDE. The series is described as follows: Cell-based assays (not shown).
The test system of the next series is TACE. Particulars: best known target TACE; no reference given; cited from earlier work.
The mark [10] stands for this setting: focused library of retro-inverso peptide hydroxamates Xaa-Arg-Tyr, modification at P1', Fig. 2B, read-out: Ki.

Values joined by “and” are separate entries in the source; they are usually repeats but may differ in a detail not shown here. Identical values can stand only once. Like-named read-outs stand apart in the source and are kept apart here.

T1 sequence (P14735 whole entry): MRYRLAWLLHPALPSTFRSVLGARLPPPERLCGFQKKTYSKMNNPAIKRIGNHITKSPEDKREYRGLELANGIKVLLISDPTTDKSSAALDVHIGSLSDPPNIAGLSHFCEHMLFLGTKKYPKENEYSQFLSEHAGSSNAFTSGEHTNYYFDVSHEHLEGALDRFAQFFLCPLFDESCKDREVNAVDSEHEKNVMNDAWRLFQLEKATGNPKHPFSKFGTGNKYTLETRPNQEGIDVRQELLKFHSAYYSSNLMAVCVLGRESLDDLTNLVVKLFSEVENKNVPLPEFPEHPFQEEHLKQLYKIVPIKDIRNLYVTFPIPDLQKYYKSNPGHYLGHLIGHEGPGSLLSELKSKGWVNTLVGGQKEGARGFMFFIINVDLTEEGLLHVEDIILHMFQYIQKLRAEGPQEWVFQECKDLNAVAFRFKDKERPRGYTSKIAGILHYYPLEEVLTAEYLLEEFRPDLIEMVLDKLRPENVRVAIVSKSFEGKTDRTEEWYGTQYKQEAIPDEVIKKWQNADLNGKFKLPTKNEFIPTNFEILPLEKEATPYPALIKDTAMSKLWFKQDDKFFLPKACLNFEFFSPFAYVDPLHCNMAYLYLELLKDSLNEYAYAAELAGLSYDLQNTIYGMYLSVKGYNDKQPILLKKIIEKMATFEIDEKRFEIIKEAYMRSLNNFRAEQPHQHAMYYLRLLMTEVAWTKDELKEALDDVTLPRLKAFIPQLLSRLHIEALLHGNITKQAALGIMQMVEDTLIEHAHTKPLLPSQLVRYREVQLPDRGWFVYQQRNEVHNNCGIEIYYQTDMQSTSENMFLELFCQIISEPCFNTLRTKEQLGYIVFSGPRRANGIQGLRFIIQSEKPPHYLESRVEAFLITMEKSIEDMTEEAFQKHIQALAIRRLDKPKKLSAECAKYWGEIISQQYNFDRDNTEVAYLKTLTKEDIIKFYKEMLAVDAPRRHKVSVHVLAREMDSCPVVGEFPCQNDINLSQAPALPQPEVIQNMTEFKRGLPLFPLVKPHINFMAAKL
Description for cathepsin D: Activity of cathepsin B was assessed by monitoring hydrolysis of Z-LR-AMC (Enzo Life Sciences International), that of cathepsin D using the Cathepsin D Assay Kit (Sigma-Aldrich), and that of the 20S proteasome using the 20S Proteasome Assay Kit for Drug Discovery (Enzo Life Sciences International).

Broadly, the IC50 is the point on the concentration scale where inhibition reaches its midpoint. In the case of `c1cnc2c(c1)ccc1cccnc12` [1,10 phenanthroline], at IDE [1], the IC50 is 300000 nM.
Consider `N=C(N)NCCC[C@@H](NC(=O)[C@H](N)Cc1ccc(O)cc1)C(=O)N[C@@H](CC(=O)NO)Cc1cccc2ccccc12` [1-naphthylalanine], for which the Ki on IDE [2] (setting [10]) was 700 nM.
On to `N=C(N)NCCC[C@@H](NC(=O)[C@H](N)Cc1ccc(O)cc1)C(=O)N[C@@H](CC(=O)NO)Cc1ccc2ccccc2c1` [2-naphthylalanine], for which, at IDE [2] (retro-inverso library), the “gain in potency relative to Phe at P1'” value is on record as approximately 100 fold.
Take `N=C(N)NCCC[C@@H](NC(=O)[C@H](N)Cc1ccc(O)cc1)C(=O)N[C@@H](CC(=O)NO)Cc1cccc(F)c1` [3-fluorophenylalanine]: the Ki on IDE [2] (setting [10]) was 7000 nM.
On the same count and under the same terms, to `CC(C)(C)c1ccc(C[C@H](CC(=O)NO)NC(=O)[C@@H](CCCNC(=N)N)NC(=O)[C@H](N)Cc2ccc(O)cc2)cc1` [4-(tert-butyl)-phenylalanine] belongs 16000 nM; to `N=C(N)NCCC[C@@H](NC(=O)[C@H](N)Cc1ccc(O)cc1)C(=O)N[C@@H](CC(=O)NO)Cc1ccc(F)cc1` [4-fluorophenylalanine], 7000 nM.
Regarding `O=C(O)CN(CCN(CC(=O)O)CC(=O)O)CC(=O)O` [EDTA], the “inhibition of IDE” value at IDE [1] (ref [18], [40]) is on record as “does not inhibit IDE except after prolonged incubation”.
Take `CNC(=O)[C@H](Cc1c[nH]c2ccccc12)NC(=O)[C@@H](CC(=O)NO)CC(C)C` [GM6001 (Galardin), reference compound]: the half-inhibitory concentration (IC50) in the series with MMP-8 was […]; against IDE [2] it was 6000 nM.
In the case of `N=C(N)NCCC[C@H](NC(=O)[C@@H](CC(=O)NO)Cc1ccc2ccccc2c1)C(=O)N[C@@H](Cc1c[nH]c2ccccc12)C(=O)N[C@@H](CCC(=O)O)C(N)=O` [Ii1], the “inhibition of cathepsin D” value on cathepsin D was “not”. For the same compound, the “IC50 for inhibition of degradation of extracellular insulin” value in the series on CHO-IR cells [3] and with HeLa cells was “comparable to that obtained in vitro” in each case. Further, the “insulin catabolism (progress curve)” value in the series on CHO-IR cells [3] (Ii1 10 µM) and in the series on HeLa cells (Ii1 10 µM) was “completely inhibited” in each case. The “intra- and extracellular FITC fluorescence over time” value in the series on CHO-IR cells [4] is “remained essentially constant”. Besides, in [5], the “insulin-stimulated IR autophosphorylation” value was “consistently potentiated”. For the same compound, the “decrease of prebound 125I-insulin” value in the series on CHO-IR cells [6] was “inhibited completely”. For the same compound, in the series on CHO-IR cells [7], the toxicity result is listed as “No toxicity”. The “Hill slopes for inhibition” value at IDE [2] (all substrates tested) is reported as less than 1. Further, the Ki was 1.7 nM and ~1.7 nM on IDE [2] (conventional peptide hydroxamates, Fig. 1, read-out: Ki); 16.3 ± 4.2 nM at IDE [2] (ki^app, Substrate: 125I-Ins); 15.7 ± 2 nM at IDE [2] (ki^app, Substrate: FAβB); 16.6 ± 3.1 nM on IDE [2] (ki^app, Substrate: HTRF-Ins); 2.55 ± 0.84 nM on IDE [2] (ki^app, Substrate: SP1). Moreover, the mode of inhibition entry at IDE [2] (hydrolysis of Aβ) and at IDE [2] (hydrolysis of insulin) was “purely competitive” in each case.
Take `CC(=O)N[C@H](CCC(=O)NCCNc1cccc2c(S(=O)(=O)O)cccc12)C(=O)N[C@H](Cc1ccc(O)cc1)C(=O)N[C@H](Cc1ccc(C(=O)c2ccccc2)cc1)C(=O)N[C@@H](CC(=O)NO)Cc1ccc2ccccc2c1` [ML3-XF, Hx-2Nap-Bpa-Tyr-Glu(EDANS)-Ac]: the “insulin-stimulated IR autophosphorylation” value in series [5] was “consistently potentiated”. The “decrease of prebound 125I-insulin” value in the series on CHO-IR cells [6] is “inhibited completely”.
Turning to `CNC(=O)C(CCc1ccccc1)NC(=O)C(CC(=O)NO)CC(C)C` (stereo not shown) [MMP Inhibitor III, reference compound], the half-maximal inhibitory concentration (IC50) is 0.1 nM in the series with MMP-13 and more than 100000 nM against IDE [2].
As to `O=C(NO)[C@@H](Cc1ccccc1)NS(=O)(=O)c1ccc(-c2ccccc2)cc1` [MMP-2/9 Inhibitor II, reference compound], the IC50 with MMP-2 was 17 nM; against IDE [2], more than 100000 nM.
On to `COc1ccc(S(=O)(=O)N(CC(=O)NO)CC(C)C)cc1` [MMP-3 Inhibitor II, reference compound], for which the 50% inhibitory concentration (IC50) in the series on MMP-3 was 130 nM; at IDE [2], more than 100000 nM.
In the case of `N#Cc1ccc(-c2ccc(OCCC(=O)NO)cc2)cc1` [MMP-3 Inhibitor VII, reference compound], the IC50 was 25 nM in the series on MMP-3 and more than 100000 nM against IDE [2].
As for `COc1ccc(S(=O)(=O)N2Cc3ccccc3C[C@@H]2C(=O)NO)cc1` [MMP-8 Inhibitor I, reference compound], the figures for the 50% inhibitory concentration (IC50) in the series on MMP-8 and on IDE [2] were 4 nM and more than 100000 nM, respectively.
Take `CCN1C(=O)C=CC1=O` [N-ethylmaleimide]: the concentration for half-maximal inhibition (IC50) on IDE [1] was 220000 nM.
For the compound `O=C(CCCN1C(=O)c2cccc3cccc(c23)C1=O)NO` [Nullscript], at IDE [8], the IC50 values result is “submicromolar”. Also, the “effect in cell-based assays” value on IDE [9] is “ineffective”. In addition, it took 900 nM to reach half-maximal inhibition against IDE [2] (IC50).
As to `CC(C)C[C@H](CC(=O)NO)C(=O)N[C@@H](Cc1ccc2ccccc2c1)C(=O)N[C@@H](C)C(N)=O` [TAPI-0, reference compound], the IC50 is 0.2 nM in the series on MMP-13 and 9000 nM at IDE [2].
Regarding `CC(C)C[C@H](CC(=O)NO)C(=O)N[C@@H](Cc1ccc2ccccc2c1)C(=O)N[C@@H](C)C(=O)NCCN` [TAPI-1, reference compound], the IC50 in the series on TACE is 100 nM; at IDE [2] it was 3000 nM.
Regarding `CC(C)C[C@H](CC(=O)NO)C(=O)N[C@H](C(=O)N[C@@H](C)C(=O)NCCN)C(C)(C)C` [TAPI-2, reference compound], the figures for the concentration for half-maximal inhibition (IC50) with TACE and on IDE [2] were 5000 nM and 11000 nM, respectively.
On to `N=C(N)NCCC[C@@H](NC(=O)[C@H](N)Cc1ccc(O)cc1)C(=O)N[C@@H](CC(=O)NO)C(c1ccccc1)c1ccccc1` [diphenylalanine], for which the Ki on IDE [2] (setting [10]) was more than 500000 nM.
